US8476197B2, “Aminopropenoates as fungicides” (priority 2009, dated 2013)
Marks after values point to notes of the source that are not given here.

Conditions: pH 2.3
Experimental: Measurement of logP values was performed according EEC directive 79/831 Annex V.A8 by HPLC (High Performance Liquid Chromatography) on reversed phase columns with the following methods:
^[a] measurement of LC-MS was done at pH 2.7 with 0.1% formic acid in water and with acetonitrile (contains 0.1% formic acid) as eluent with a linear gradient from 10% acetonitrile to 95% acetonitrile. ^[b] Measurement was done at pH 7.5 with 0.005 molar aqueous KH2PO4 buffer and acetonitrile as eluent. ^[c] Measurement was done at pH 2.3 with 0.1% (w/w) phosphoric acid and acetonitrile as eluent.

| Structure (SMILES) | Log P |
| --- | --- |
| CCOC(=O)C(C#N)=C(NC1CCSC1=O)c1cccnc1Cl (racemic) [Compound 44] | 2.42 |

Same assay, conditions: pH 2.7

| Structure (SMILES) | Log P |
| --- | --- |
| CCOC(=O)C(C#N)=C(NC(C)Cc1c[nH]c2ccccc12)c1cn(C)nc1C(F)F (racemic) [Compound 35] | 3.25^[a] |
| CCOC(=O)C(C#N)=C(NC(C)c1ccccn1)c1cn(C)nc1C(F)F (racemic) [Compound 36] | 2.33^[a] |
| CCOC(=O)C(C#N)=C(NC(C)c1nc(C)c(C)s1)c1ncc(C(F)(F)F)cc1Cl (racemic) [Compound 37] | 4.04^[a] |
| CCOC(=O)C(C#N)=C(NC(C)c1nccs1)c1c(C)nn(C)c1F (racemic) [Compound 38] | 2.37^[a] |
| CCOC(=O)C(C#N)=C(NC(C)Cc1c[nH]c2ccccc12)c1ncc(C(F)(F)F)cc1Cl (racemic) [Compound 41] | 4.07^[a] |
| CCOC(=O)C(C#N)=C(NC(C)c1ccccn1)c1ncc(C(F)(F)F)cc1Cl (racemic) [Compound 43] | 3.44^[a] |
| CCOC(=O)C(C#N)=C(NC(C)c1nc(C)c(C)s1)c1c(C)nn(C)c1F (racemic) [Compound 45] | 2.94^[a] |
| CCOC(=O)C(C#N)=C(NC(C)Cc1c[nH]c2ccccc12)c1c(C)nn(C)c1F (racemic) [Compound 46] | 3.07^[a] |
| COC(=O)C(C#N)=C(NC(C)c1nc(C)c(C)s1)c1cn(C)nc1C(F)F (racemic) [Compound 47] | 2.65^[a] |
| CCOC(=O)C(C#N)=C(NC(c1cc2ccccc2s1)C(F)(F)F)c1cn(C)nc1C(F)F (racemic) [Compound 48] | 4.1^[a] |
| CCOC(=O)C(C#N)=C(NC(C)c1ccccn1)c1c(C)nn(C)c1F (racemic) [Compound 50] | 2.28^[a] |
| CCOC(=O)C(C#N)=C(NC(c1cc2ccccc2s1)C(F)(F)F)c1c(C)nn(C)c1F (racemic) [Compound 51] | 4.25^[a] |
| CCOC(=O)C(C#N)=C(NC(C)c1nc(C)c(C)s1)c1nsc(Cl)c1Cl (racemic) [Compound 53] | 4.01^[a] |
| CCOC(=O)C(C#N)=C(NC(C)Cc1c[nH]c2ccccc12)c1nsc(Cl)c1Cl (racemic) [Compound 54] | 4.1^[a] |
| CCOC(=O)C(C#N)=C(NC(C)c1nccs1)c1nsc(Cl)c1Cl (racemic) [Compound 55] | 3.29^[a] |
| COC(=O)C(C#N)=C(NC(C)Cc1c[nH]c2ccccc12)c1cn(C)nc1C(F)F (racemic) [Compound 57] | 3^[a] |
| COC(=O)C(C#N)=C(NC(C)c1ccccn1)c1cn(C)nc1C(F)F (racemic) [Compound 59] | 2.05^[a] |
| COC(=O)C(C#N)=C(NC(c1cc2ccccc2s1)C(F)(F)F)c1cn(C)nc1C(F)F (racemic) [Compound 60] | 3.83^[a] |
| COC(=O)C(C#N)=C(NC(C)c1nccs1)c1cn(C)nc1C(F)F (racemic) [Compound 61] | 2.13^[a] |
| CCOC(=O)C(C#N)=C(NC(C)c1nccs1)c1cn(C)nc1C(F)(F)F (racemic) [Compound 63] | 2.78^[a] |
| CCOC(=O)C(C#N)=C(NC(c1cc2ccccc2s1)C(F)(F)F)c1sccc1Br (racemic) [Compound 129] | 4.9^[a] |
| CCOC(=O)C(C#N)=C(NC(c1cc2ccccc2s1)C(F)(F)F)c1ccsc1Br (racemic) [Compound 130] | 4.87^[a] |
| COC(=O)C(C#N)=C(NC(C)c1nc(C)c(C)s1)c1sc(C)nc1C(F)(F)F (racemic) [Compound 131] | 3.46^[a] |
| COC(=O)C(C#N)=C(NC(C)Cc1c[nH]c2ccccc12)c1sc(C)nc1C(F)(F)F (racemic) [Compound 133] | 3.6^[a] |
| COC(=O)C(C#N)=C(NC(C)c1ccccn1)c1sc(C)nc1C(F)(F)F (racemic) [Compound 135] | 2.77^[a] |

Same assay, conditions: pH 7.5

| Structure (SMILES) | Log P |
| --- | --- |
| CCOC(=O)C(C#N)=C(NC1CCSC1=O)c1cccnc1Cl (racemic) [Compound 44] | 2.23 |
| CCOC(=O)C(C#N)=C(NC(C)Cc1ncc(C(F)(F)F)cc1Cl)c1cccnc1Cl (racemic) [Compound 49] | 3.76 |
| CCOC(=O)C(C#N)=C(NC(C)c1ncc(Br)s1)c1cccnc1Cl (racemic) [Compound 128] | 3.32 |
